{"source": "patent US11958834B2", "about": "“Inhibitors of human immunodeficiency virus replication” (VIIV HEALTHCARE UK (No. 5) LIMITED, priority 2018, dated 2024)", "format_in_all_cases": "cell-based", "key": {"[1]": {"test": "Compound cytotoxicity, XTT-based colorimetric assay", "settings": "human; uninfected MT2 cells, day 4, XTT", "description": "(§1) Compound cytotoxicity and the corresponding CC50 values were determined using the same protocol as described in the antiviral assay except that uninfected cells were used. Cytotoxicity was assessed on day 4 in uninfected MT2 cells by using a XTT (2,3-bis[2-Methoxy-4-nitro-5-sulfophenyl]-2H-tetrazolium-5-carboxyanilide inner salt)-based colorimetric assay (Sigma-Aldrich, St Louis, Mo.)."}, "[2]": {"system": "recombinant NL4-3 virus (Renilla luciferase) in MT-2 cells", "test": "HIV cell culture assay (antiviral activity, luciferase readout)", "description": "HIV cell culture assay—MT-2 cells, 293T cells and the proviral DNA clone of NL4-3 virus were obtained from the NIH AIDS Research and Reference Reagent Program. MT-2 cells were propagated in RPMI 1640 media supplemented with 10% heat inactivated fetal bovine serum (FBS), 100 μg/ml penicillin G and up to 100 units/mL streptomycin. The 293T cells were propagated in DMEM media supplemented with 10% heat inactivated FBS, 100 μg/mL penicillin G and 100 μg/mL streptomycin. A recombinant NL4-3 proviral clone, in which a section of the nef gene was replaced with the Renilla luciferase gene, was used to make the reference virus used in these studies. The recombinant virus was prepared through transfection of the recombinant NL4-3 proviral clone into 293T cells using Transit-293 Transfection Reagent from Mirus Bio LLC (Madison, Wis.). Supernatant was harvested after 2-3 days and the amount of virus present was titered in MT-2 cells using luciferase enzyme activity as a marker by measuring luciferase enzyme activity. Luciferase was quantitated using the EnduRen Live Cell Substrate from Promega (Madison, Wis.). Antiviral activities of compounds toward the recombinant virus were quantified by measuring luciferase activity in MT-2 cells infected for 4-5 days with the recombinant virus in the presence of serial dilutions of the compound.\nThe 50% effective concentration (EC50) was calculated by using the exponential form of the median effect equation where (Fa)=1/[1+(ED50/drug conc.)^m] (Johnson V A, Byington R T. Infectivity Assay. In Techniques in HIV Research. ed. Aldovini A, Walker B D. 71-76. New York: Stockton Press. 1990)."}, "uninfected MT2 cells": {"system": "uninfected MT2 cells", "test": "Compound cytotoxicity, XTT-based colorimetric assay", "settings": "day 4, XTT", "description": "as §1"}, "[3]": {"settings": "MT-2 cells infected for 4-5 days with recombinant NL4-3 Renilla luciferase virus"}, "[4]": {"settings": "Renilla, NL43, MT-2 cells infected for 4-5 days with recombinant NL4-3 Renilla luciferase virus"}}}
{"smiles": "Cn1nc(NS(C)(=O)=O)c2c(Cl)ccc(-n3c([C@H](Cc4cc(F)cc(F)c4)NC(=O)Cn4nc(C(F)F)c5c4C(F)(F)[C@@H]4C[C@H]54)nccc3=O)c21", "note": "(mixture of isomers) [Example 1, N—((S)-1-(1-(4-chloro-1-methyl-3-(methylsulfonamido)-1H-indazol-7-yl)-6-oxo-1,6-dihydropyrimidin-2-yl)-2-(3,5-difluorophenyl)ethyl)-2-((3bS,4aR)-3-(difluoromethyl)-5,5-difluoro-3b,4,4a,5-tetrahydro-1H-cyclopropa[3,4]cyclopenta[1,2-c]pyrazol-1-yl)acetamide]", "values": [{"measurement": "CC50 at 4 days", "setting": "[1]", "value": "> 1000", "unit": "nM"}, {"measurement": "EC50", "setting": "[2]; [3]", "value": 32.7, "unit": "nM"}]}
{"smiles": "Cn1nc(NS(C)(=O)=O)c2c(Cl)ccc(-n3c([C@H](Cc4cc(F)cc(F)c4)NC(=O)Cn4nc(C(F)F)c5c4C(F)(F)[C@@H]4C[C@H]54)nccc3=O)c21", "note": "(mixture of isomers) [Example 2, N—((S)-1-(1-(4-chloro-1-methyl-3-(methylsulfonamido)-1H-indazol-7-yl)-6-oxo-1,6-dihydropyrimidin-2-yl)-2-(3,5-difluorophenyl)ethyl)-2-((3bS,4aR)-3-(difluoromethyl)-5,5-difluoro-3b,4,4a,5-tetrahydro-1H-cyclopropa[3,4]cyclopenta[1,2-c]pyrazol-1-yl)acetamide]", "values": [{"measurement": "CC50", "setting": "uninfected MT2 cells", "value": "> 1000", "unit": "nM"}, {"measurement": "EC50", "setting": "[2]; [3]", "value": 0.118, "unit": "nM"}]}
{"smiles": "Cn1nc(NS(C)(=O)=O)c2c(Cl)ccc(-n3c([C@@H](Cc4cc(F)cc(F)c4)NC(=O)Cn4nc(C(F)F)c5c4C(F)(F)[C@@H]4C[C@H]54)nccc3=O)c21", "note": "[Example 3, N—((R)-1-((1M)-1-(4-chloro-1-methyl-3-(methylsulfonamido)-1H-indazol-7-yl)-6-oxo-1,6-dihydropyrimidin-2-yl)-2-(3,5-difluorophenyl)ethyl)-2-((3bS,4aR)-3-(difluoromethyl)-5,5-difluoro-3b,4,4a,5-tetrahydro-1H-cyclopropa[3,4]cyclopenta[1,2-c]pyrazol-1-yl)acetamide]", "values": [{"measurement": "CC50 at 4 days", "setting": "[1]", "value": "> 1000", "unit": "nM"}, {"measurement": "EC50", "setting": "[2]; [4]", "value": 12.7, "unit": "nM"}]}
{"smiles": "Cn1nc(NS(C)(=O)=O)c2c(Cl)ccc(-n3c([C@H](Cc4cc(F)cc(F)c4)NC(=O)Cn4nc(C(F)F)c5c4C(F)(F)[C@@H]4C[C@H]54)nccc3=O)c21", "note": "[Example 4]", "values": [{"measurement": "CC50", "setting": "uninfected MT2 cells", "value": "> 1000", "unit": "nM"}, {"measurement": "EC50", "setting": "[2]; [4]", "value": 0.554, "unit": "nM"}]}
{"smiles": "Cn1nc(NS(C)(=O)=O)c2c(Cl)ccc(-n3c([C@@H](Cc4cc(F)cc(F)c4)NC(=O)Cn4nc(C(F)(F)F)c5c4C(F)(F)[C@@H]4C[C@H]54)nccc3=O)c21", "note": "[Example 5, N—((R)-1-((1M)-1-(4-chloro-1-methyl-3-(methylsulfonamido)-1H-indazol-7-yl)-6-oxo-1,6-dihydropyrimidin-2-yl)-2-(3,5-difluorophenyl)ethyl)-2-((3bS,4aR)-5,5-difluoro-3-(trifluoromethyl)-3b,4,4a,5-tetrahydro-1H-cyclopropa[3,4]cyclopenta[1,2-c]pyrazol-1-yl)acetamide]", "values": [{"measurement": "CC50 at 4 days", "setting": "[1]", "value": "> 1000", "unit": "nM"}, {"measurement": "EC50", "setting": "[2]; [4]", "value": 70, "unit": "nM"}]}
{"smiles": "Cn1nc(NS(C)(=O)=O)c2c(Cl)ccc(-n3c([C@H](Cc4cc(F)cc(F)c4)NC(=O)Cn4nc(C(F)(F)F)c5c4C(F)(F)[C@@H]4C[C@H]54)nccc3=O)c21", "note": "[Example 6, N—((S)-1-((1P)-1-(4-chloro-1-methyl-3-(methylsulfonamido)-1H-indazol-7-yl)-6-oxo-1,6-dihydropyrimidin-2-yl)-2-(3,5-difluorophenyl)ethyl)-2-((3bS,4aR)-5,5-difluoro-3-(trifluoromethyl)-3b,4,4a,5-tetrahydro-1H-cyclopropa[3,4]cyclopenta[1,2-c]pyrazol-1-yl)acetamide]", "values": [{"measurement": "CC50 at 4 days", "setting": "[1]", "value": "> 1000", "unit": "nM"}, {"measurement": "EC50", "setting": "[2]; [4]", "value": 0.493, "unit": "nM"}]}
